From US11008346B2, “Beta-lactamase inhibitors” (priority 2014, dated 2021)
Where two headings read alike, the source gives them in different places.

Columns and labels:
[1] = target: T1, SHV-5 β-lactamase (Klebsiella pneumoniae, UniProt P0A3M1); assay: β-lactamase enzyme inhibition, SHV-5; type: biochemical
T1 construct: made in house; host or cells: E. coli BL21(DE3)
Summary of the method: (§1)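 Enzyme + inhibitor, 15 min, 37° C; substrate added, absorbance read 10 min. OXA-1/p99 AmpC: nitrocefin 100 μM final, A486. KPC-2: imipenem, A300. SHV-5: cefotaxime, A260. IC50 = 50% drop in initial hydrolysis rate vs no-inhibitor control.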

[2] = test system: E. coli ESBL4 expressing CTX-M-15; assay: broth microdilution MIC, E. coli CTX-M-15; type: cell-based; settings: Fixed CAZ (ceftazidime) 4 μg/mL
Summary of the method: (§2)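 CAMHB; strains pre-grown 3-5 h. Test cpd 2-fold dilutions, 32→0.25 μg/mL final, + beta-lactam static 4 μg/mL. CLSI inoculation, 16-20 h at 37° C, visual MIC.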

[3] = target: T2, KPC-2 β-lactamase (Klebsiella pneumoniae, UniProt Q9F663); assay: β-lactamase enzyme inhibition, KPC-2; type: biochemical
T2 construct: made in house; host or cells: E. coli BL21(DE3)
Summary of the method: as §1

[4] = test system: K. pneumoniae 156319 expressing KPC-3; assay: broth microdilution MIC, K. pneumoniae KPC-3; type: cell-based; settings: Fixed Mero (meropenem) 4 μg/mL
Summary of the method: as §2

[5] = test system: S. aureus MSSA-7 producing penicillinase PC-1; assay: broth microdilution MIC, S. aureus PC-1; type: cell-based; settings: Fixed Pip (piperacillin) 4 μg/mL
Text: (§3) To determine the ability of test compounds to potentiate the inhibition of the growth of bacterial strains that produce beta-lactamase enzymes, classic cell based broth microdilution MIC assays were employed. Six bacteria strains producing beta-lactamase enzymes were used: E. coli expressing the Class A Extended Spectrum Beta-Lactamase (ESBL) CTX-M-15, E. cloacae expressing the Class C P99, K. pneumoniae expressing the Class A carbapenemase KPC-3, P. aeruginosa expressing the Class B carbapenemase VIM-2, K pneumoniae expressing the class A carbapenemase KPC-2 and the class B carbapenemase VIM-4, and S. aureus producing the Class A penicillinase PC-1. The assay was conducted in Cation Adjusted Mueller Hinton Broth (CAMHB, BD #212322, BD Diagnostic Systems, Sparks, Md.). Bacteria strains were grown for 3-5 hours in CAMBH broth. Test compounds were added to a microtiter plate in 2-fold serial dilutions in CAMHB in a final concentration range of 32 μg/mL to 0.25 μg/ml. An overlay of CAMHB containing a Beta-lactam was added to the compounds at a final static concentration of 4 μg/ml. […] In addition to the titration of test compounds the MICs of a panel of control beta-lactams is also tested to ensure the strains are behaving consistently from test to test. Once the test compound and antibiotics are added the plates can be inoculated according to CLSI broth microdilution method. After inoculation the plates are incubated for 16-20 hours at 37° C., then the Minimal Inhibitory Concentration (MIC) of the test compound is determined visually.
(§4) Using the methodology described above, examples of the current invention were evaluated for their ability to inhibit the growth of β-lactamase-producing bacteria in the presence of a β-lactam antibiotic.
(§5) Representative results are shown in Table 4 where A represents an MIC of the fixed β-lactam antibiotic in the presence of >32 µg/mL of a β-lactamase inhibitor of exemplary compounds, B represents the MIC in the presence of between 8 and 32 µg/mL of a β-lactamase inhibitor of exemplary compounds, and C represents the MIC in the presence of ≤4 µg/mL of a β-lactamase inhibitor of exemplary compounds. NT=Not Tested.

[6] = target: T3, OXA-1 β-lactamase (Escherichia coli, UniProt P13661); assay: β-lactamase enzyme inhibition, OXA-1; type: biochemical; settings: Nitrocefin 100 μM, 486 nm; 15 min at 37° C. preincubation; read-out: IC50 OXA-1 (Class D)
T3 construct: made in house; host or cells: E. coli BL21(DE3)
Summary of the method: as §1

[7] = target: T4, VIM-2 metallo β-lactamase (Pseudomonas aeruginosa, UniProt Q9K2N0); assay: β-lactamase enzyme inhibition, VIM-2; type: biochemical; settings: Nitrocefin 100 μM, 486 nm; 15 min at 37° C. preincubation; read-out: IC50 VIM-2 (Class B)
T4 construct: made in house; host or cells: E. coli BL21(DE3)
Summary of the method: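 Inhibitor and enzyme sat together 15 min at 37° C before 100 μM nitrocefin (final) was added and 486 nm absorbance read for 10 min. IC50 is the concentration halving initial hydrolysis rate relative to uninhibited wells. Protein came from Q sepharose anion exchange at pH 7.5, repeated to >90% purity.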

[8] = test system: E. cloacae 144200 expressing Class C P99 AmpC; assay: broth microdilution MIC, E. cloacae P99; type: cell-based; settings: Fixed CAZ (ceftazidime) 4 μg/mL
Summary of the method: as §2

[9] = test system: P. aeruginosa Ps296 expressing VIM-2; assay: broth microdilution MIC, P. aeruginosa VIM-2; type: cell-based; settings: Fixed Mero (meropenem) 4 μg/mL
Text: as §3, §4, §5

[10] = test system: K. pneumoniae A-1797 expressing KPC-2 and VIM-4; assay: broth microdilution MIC, K. pneumoniae KPC-2 and VIM-4; type: cell-based; settings: Fixed Mero (meropenem) 4 μg/mL
Summary of the method: as §2

[11] = target: T5, p99 AmpC β-lactamase (Enterobacter cloacae, UniProt P05364); assay: β-lactamase enzyme inhibition, p99 AmpC; type: biochemical
T5 construct: made in house; host or cells: E. coli BL21(DE3)
Summary of the method: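 Inhibitor and enzyme were incubated 15 min at 37°C first. The enzyme was recombinant p99 AmpC, untagged, from E. coli BL21(DE3), purified by ion-exchange and size-exclusion chromatography.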

[12] = imipenem substrate, 300 nm, 15 min at 37° C. preincubation, read-out: IC50 KPC-2 (Class A)

T2 sequence (Q9F663 25-293, looked up): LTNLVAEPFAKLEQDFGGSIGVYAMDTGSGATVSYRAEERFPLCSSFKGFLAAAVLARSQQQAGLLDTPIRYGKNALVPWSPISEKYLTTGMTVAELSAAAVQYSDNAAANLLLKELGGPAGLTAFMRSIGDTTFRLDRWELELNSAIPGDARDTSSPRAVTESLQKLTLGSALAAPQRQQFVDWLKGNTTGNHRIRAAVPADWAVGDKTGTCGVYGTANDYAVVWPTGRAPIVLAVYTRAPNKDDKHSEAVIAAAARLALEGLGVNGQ
T3 sequence (P13661 26-276): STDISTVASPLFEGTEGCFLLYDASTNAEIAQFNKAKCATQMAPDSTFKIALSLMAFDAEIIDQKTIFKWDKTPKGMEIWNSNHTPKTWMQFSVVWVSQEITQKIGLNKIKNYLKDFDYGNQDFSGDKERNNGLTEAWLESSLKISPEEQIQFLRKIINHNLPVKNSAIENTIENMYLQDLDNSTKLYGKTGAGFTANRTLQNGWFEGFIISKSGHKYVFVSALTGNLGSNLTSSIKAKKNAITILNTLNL
T1 sequence (P0A3M1 22-286): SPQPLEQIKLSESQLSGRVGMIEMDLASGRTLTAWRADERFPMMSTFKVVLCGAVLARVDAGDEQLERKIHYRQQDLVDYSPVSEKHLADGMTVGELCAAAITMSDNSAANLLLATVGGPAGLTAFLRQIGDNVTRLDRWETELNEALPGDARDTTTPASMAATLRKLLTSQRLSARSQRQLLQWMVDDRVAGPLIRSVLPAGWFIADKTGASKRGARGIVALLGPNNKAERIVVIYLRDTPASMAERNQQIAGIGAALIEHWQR
T5 sequence (P05364 21-381): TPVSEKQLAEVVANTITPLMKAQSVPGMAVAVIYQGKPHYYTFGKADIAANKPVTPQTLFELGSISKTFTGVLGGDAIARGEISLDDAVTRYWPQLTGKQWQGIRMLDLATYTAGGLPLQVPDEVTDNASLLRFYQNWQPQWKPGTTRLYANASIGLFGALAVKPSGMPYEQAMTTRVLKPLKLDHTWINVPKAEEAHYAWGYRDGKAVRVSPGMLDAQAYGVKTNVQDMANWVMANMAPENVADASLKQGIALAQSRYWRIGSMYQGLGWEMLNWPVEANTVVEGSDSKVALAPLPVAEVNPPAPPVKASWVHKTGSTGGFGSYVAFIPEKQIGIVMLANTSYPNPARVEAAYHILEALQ

In the case of `CCCC(=O)N[C@H]1Cc2cccc(C(=O)O)c2OB1O` [Example 1, (R)-3-Butyrylamino-2-hydroxy-3,4-dihydro-2H-benzo[e][1,2]oxaborinine-8-carboxylic acid], the IC50 [1] is reported as under 100 nM, the “MIC of exemplary compounds in presence of fixed β-lactams, E. coli ESBL4 CTX-M-15” value (“MIC … E. coli ESBL4 CTX-M-15” for short) [2] is reported as “C (C represents the MIC in the presence of ≤4 g/mL of a β-lactamase inhibitor)” and the IC50 [3] is reported as under 100 nM. For the same compound, the “MIC of exemplary compounds in presence of fixed β-lactams, K.P. 156319 KPC-3” value (shortened to “MIC of exemplary compounds … K.P. 156319 KPC-3”) [4] was “C (C represents the MIC in the presence of ≤4 g/mL of a β-lactamase inhibitor)”, the “MIC of exemplary compounds in presence of fixed β-lactams, S. aureus MSSA-7 PC-1” value (from here on “MIC … S. aureus MSSA-7 PC-1”) [5] was “C (C represents the MIC in the presence of ≤4 g/mL of a β-lactamase inhibitor)” and the IC50 [6] was under 100 nM. The IC50 [7] was 1 to 10 µM, the “MIC of exemplary compounds in presence of fixed β-lactams, E. cl. 144200 p99 AmpC” value (from here on “MIC … E. cl. 144200 p99 AmpC”) [8] was “C (C represents the MIC in the presence of ≤4 g/mL of a β-lactamase inhibitor)” and the “MIC of exemplary compounds in presence of fixed β-lactams, P. aerug. Ps296 VIM-2” value (shortened to “MIC … P. aerug. Ps296 VIM-2”) [9] was “A (A represents an MIC of the fixed β-lactam antibiotic in the presence of >32 g/mL of a β-lactamase inhibitor)”. The “MIC of exemplary compounds in presence of fixed β-lactams, K.P. A-1797 KPC-2 VIM-4” value (shortened to “MIC … K.P. A-1797 KPC-2 VIM-4”) [10] was “A (A represents an MIC of the fixed β-lactam antibiotic in the presence of >32 g/mL of a β-lactamase inhibitor)” and the IC50 [11] was under 100 nM.

`N#CCC(=O)N[C@H]1Cc2cccc(C(=O)O)c2OB1O` [Example 2, (R)-3-(2-Cyano-acetylamino)-2-hydroxy-3,4-dihydro-2H-benzo[e] [1,2]oxaborinine-8-carboxylic acid] was tested, and the IC50 [1] was under 100 nM, the “MIC … E. coli ESBL4 CTX-M-15” value [2] was “C (C represents the MIC in the presence of ≤4 g/mL of a β-lactamase inhibitor)” and the IC50 [3, 12] was 100 to 1000 nM. For the same compound, the “MIC of exemplary compounds … K.P. 156319 KPC-3” value [4] was “C (C represents the MIC in the presence of ≤4 g/mL of a β-lactamase inhibitor)”, the “MIC … S. aureus MSSA-7 PC-1” value [5] was “C (C represents the MIC in the presence of ≤4 g/mL of a β-lactamase inhibitor)” and the IC50 [6] was under 100 nM. The IC50 [7] was 1 to 10 µM, the “MIC … E. cl. 144200 p99 AmpC” value [8] was “C (C represents the MIC in the presence of ≤4 g/mL of a β-lactamase inhibitor)” and the “MIC … P. aerug. Ps296 VIM-2” value [9] was “B (B represents the MIC in the presence of between 8 and 32 g/mL of a β-lactamase inhibitor)”. The “MIC … K.P. A-1797 KPC-2 VIM-4” value [10] was “C (C represents the MIC in the presence of ≤4 g/mL of a β-lactamase inhibitor)” and the IC50 [11] was under 100 nM.

`CC(O)(O)C(=O)N[C@H]1Cc2cccc(C(=O)O)c2OB1O` [Example 3, (R)-3-(2,2-Dihydroxy-propionylamino)-2-hydroxy-3,4-dihydro-2H-benzo[e][1,2]oxaborinine-8-carboxylic acid] was tested, and the IC50 [1] was 100 to 1000 nM, the “MIC … E. coli ESBL4 CTX-M-15” value [2] was “C (C represents the MIC in the presence of ≤4 g/mL of a β-lactamase inhibitor)” and the IC50 [3, 12] was 100 to 1000 nM. The “MIC of exemplary compounds … K.P. 156319 KPC-3” value [4] was “C (C represents the MIC in the presence of ≤4 g/mL of a β-lactamase inhibitor)”, the “MIC … S. aureus MSSA-7 PC-1” value [5] was “C (C represents the MIC in the presence of ≤4 g/mL of a β-lactamase inhibitor)” and the IC50 [6] was under 100 nM. For the same compound, the IC50 [7] was 1 to 10 µM, the “MIC … E. cl. 144200 p99 AmpC” value [8] was “C (C represents the MIC in the presence of ≤4 g/mL of a β-lactamase inhibitor)” and the “MIC … P. aerug. Ps296 VIM-2” value [9] was “C (C represents the MIC in the presence of ≤4 g/mL of a β-lactamase inhibitor)”. The “MIC … K.P. A-1797 KPC-2 VIM-4” value [10] was “A (A represents an MIC of the fixed β-lactam antibiotic in the presence of >32 g/mL of a β-lactamase inhibitor)” and the IC50 [11] was under 100 nM.

In the case of `O=C(CC(F)(F)F)N[C@H]1Cc2cccc(C(=O)O)c2OB1O` [Example 4, (R)-2-Hydroxy-3-(3,3,3-trifluoro-propionylamino)-3,4-dihydro-2H-benzo[e][1,2]oxaborinine-8-carboxylic acid], the IC50 [1] is reported as under 100 nM, the “MIC … E. coli ESBL4 CTX-M-15” value [2] is reported as “C (C represents the MIC in the presence of ≤4 g/mL of a β-lactamase inhibitor)” and the IC50 [3, 12] is reported as 100 to 1000 nM. For the same compound, the “MIC of exemplary compounds … K.P. 156319 KPC-3” value [4] was “C (C represents the MIC in the presence of ≤4 g/mL of a β-lactamase inhibitor)”, the “MIC … S. aureus MSSA-7 PC-1” value [5] was “C (C represents the MIC in the presence of ≤4 g/mL of a β-lactamase inhibitor)” and the IC50 [6] was under 100 nM. The IC50 [7] was 1 to 10 µM, the “MIC … E. cl. 144200 p99 AmpC” value [8] was “C (C represents the MIC in the presence of ≤4 g/mL of a β-lactamase inhibitor)” and the “MIC … P. aerug. Ps296 VIM-2” value [9] was “C (C represents the MIC in the presence of ≤4 g/mL of a β-lactamase inhibitor)”. For the same compound, the “MIC … K.P. A-1797 KPC-2 VIM-4” value [10] was “B (B represents the MIC in the presence of between 8 and 32 g/mL of a β-lactamase inhibitor)” and the IC50 [11] was under 100 nM.

With `O=C(O)c1cccc2c1OB(O)[C@@H](NC(=O)C(Cl)CC(F)F)C2` (stereo partly drawn) [Example 5, (R)-3-(2-Chloro-4,4-difluoro-butyrylamino)-2-hydroxy-3,4-dihydro-2H-benzo[e][1,2]oxaborinine-8-carboxylic acid] the IC50 [1] was under 100 nM, the “MIC … E. coli ESBL4 CTX-M-15” value [2] was “C (C represents the MIC in the presence of ≤4 g/mL of a β-lactamase inhibitor)” and the IC50 [3, 12] was under 100 nM. For the same compound, the “MIC of exemplary compounds … K.P. 156319 KPC-3” value [4] was “C (C represents the MIC in the presence of ≤4 g/mL of a β-lactamase inhibitor)”, the “MIC … S. aureus MSSA-7 PC-1” value [5] was “C (C represents the MIC in the presence of ≤4 g/mL of a β-lactamase inhibitor)” and the IC50 [6] was under 100 nM. For the same compound, the IC50 [7] was 1 to 10 µM, the “MIC … E. cl. 144200 p99 AmpC” value [8] was “C (C represents the MIC in the presence of ≤4 g/mL of a β-lactamase inhibitor)” and the “MIC … P. aerug. Ps296 VIM-2” value [9] was “A (A represents an MIC of the fixed β-lactam antibiotic in the presence of >32 g/mL of a β-lactamase inhibitor)”. For the same compound, the “MIC … K.P. A-1797 KPC-2 VIM-4” value [10] was “B (B represents the MIC in the presence of between 8 and 32 g/mL of a β-lactamase inhibitor)” and the IC50 [11] was under 100 nM.
